According to US10596139B2 (CHASE PHARMACEUTICALS CORPORATION, priority 2015, dated 2020):

Key:
[1] = test system: Male Swiss mice; experiment: Dose-response to xanomeline in a mouse model of diarrhea (fecal pellet count); type: in vivo; details: xanomeline i.p. 0.3 to 30 mg/kg
Excerpt: Study 1—Establishment of the Dose-Response to Xanomeline in a Mouse Model of Diarrhea.
Male Swiss mice (4-6 weeks old), N=10 per treatment group were used, and treated intra-peritoneally (i.p.) with either vehicle (vehicle group) or increasing doses of xanomeline, a representative muscarinic agonist. Mice were randomly assigned to one of two experimental groups (vehicle; or increasing doses of xanomeline). Each animal was identified by its group name, cage number, series (day) of experiment, and number (1 to 10) written with permanent ink on the tail.
Mice were placed individually in cages without any bedding materials. During the experiment the number of fecal pellets were counted at different time-points, starting one hour before the time of the administration of the test compound (T0), as outlined below:
T−1 h to T0: counting of the accumulated fecal pellets excreted.
T0: administration of the test compound.
T0 to T+2 h: counting of the accumulated fecal pellets excreted.
T+2 h to T+4 h: counting of the accumulated fecal pellets excreted.
The total number of fecal pellets for each mouse was counted over time. An analysis of variance (ANOVA) was performed on the results. Fisher's Protected Least Significant Difference was used for pairwise comparisons; p values≤0.05 were considered significant. […]

[2] = test system: Male Swiss mice; experiment: T-maze continuous alternation task (T-CAT) with oxybutynin and xanomeline; type: in vivo
Excerpt: Evaluation of Cognition with Oxybutynin and Xanomeline in the T-maze Alternation Task in Mice
The T-maze continuous alternation task (T-CAT) is useful as model for studying compounds with cognitive enhancing properties. The T-maze consists of 2 choice arms and 1 start arm mounted to a square center. Manual doors are provided to close specific arms during the force choice alternation task.
Mice were randomly assigned to one of the different experimental treatment groups. Each animal was identified by its group name, cage number, series (day) of experiment, and number (1 to 10) written with permanent ink on the tail.
The T-maze apparatus is made of gray Plexiglas with a main stem (55 cm long[…]10 cm wide[…]20 cm high) and two arms (30 cm long[…]10 cm wide[…]20 cm high) positioned at 90 degree angle relative to the main stem. A start box (15 cm long[…]10 cm wide) is separated from the main stem by a guillotine door. Horizontal doors are also provided to close specific arms during the force choice alternation task. […]
The percentage of alternation over the 14 free-choice trials was determined for each mouse and was used as an index of working memory performance. […]
Analysis of variance (ANOVA) was performed on the results. […] The drug-induced improvement of memory was calculated by setting the respective response of the saline/vehicle as 100% and that of the test group as 0% reversion. […]

[3] = test system: patients with Alzheimer disease; details: cited from earlier work
[4] = test system: healthy volunteers and Alzheimer's patients; details: cited from earlier work
[5] = test system: Male Swiss mice; experiment: Antagonism of xanomeline-induced diarrhea in mice by oxybutynin (fecal pellet count); type: in vivo; details: oxybutynin i.p. 0.3 to 30 mg/kg, 30 minutes before xanomeline 30 mg/kg
Protocol: Male Swiss mice (4-6 weeks old), N=10 per treatment group were used.
Mice were placed individually in cages without any bedding materials. During the experiment the number of fecal pellets was counted at different time-points as outlined below:
T0: administration of oxybutinin.
T30 min: administration of vehicle or xanomeline.
T 30 min to T 2.5 h: counting of accumulated fecal pellets excreted.
T+2.5 h to T+4.5 h: counting of accumulated fecal pellets excreted.
The total number of fecal pellets for each mouse was counted over time. An analysis of variance (ANOVA) was performed on the results. Fisher's Protected Least Significant Difference was used for pairwise comparisons. The p value≤0.05 were considered significant. Grubbs' test (http//www at graphpad.com/quickcalcs/Grubbs1.cfm) was used to detect outliers for each parameter in each experimental group.

| Compound | diarrhea (number of fecal pellets) [1] | ability to perform the T-maze test at the higher dose ([2]; i.p. xanomeline, higher dose (dose that caused diarrhea)) | cognitive and behavioral symptoms of Alzheimer disease ([3]; compared to placebo, 6 months) | side effects (bradycardia, gastro-intestinal distress, excessive salivation, sweating) ([3]; patients with Alzheimer disease) | discontinuation rate ([4]; Alzheimer's patient population) | dose tolerated by some individuals ([4]; oral, taken with food) | maximal tolerated dose ([4]; orally administered) | maximal tolerated dose per day ([4]; orally administered) | antagonism of diarrhea induced by xanomeline [5] | ability to perform the T-maze test after pretreatment ([2]; i.p. oxybutynin pretreatment 30 minutes before xanomeline) |
| --- | --- | --- | --- | --- | --- | --- | --- | --- | --- | --- |
| CCCCCCOc1nsnc1C1=CCCN(C)C1 [xanomeline, 3-(4-hexyloxy-1,2,5-thiadiazol-3-yl)-1-methyl-5,6-dihydro-2H-pyridine] | dose-dependently causes diarrhea | too sick to perform the test | significantly improve cognitive and behavioral symptoms of Alzheimer disease | dose-dependent unacceptable side effects | higher than 50% | 110 mg three times/day | 75 mg three times/day | 225 mg/day | – | – |
| CCN(CC)CC#CCOC(=O)C(O)(c1ccccc1)C1CCCCC1 (stereo not shown) [oxybutynin, 4-diethylaminobut-2-ynyl 2-cyclohexyl-2-hydroxy-2-phenylethanoate] | – | – | – | – | – | – | – | – | dose-dependently antagonized the diarrhea induced by xanomeline | restored the animals' ability to perform the T-maze test |
